In one experiment the target is T1, human FXR (Homo sapiens, UniProt Q96RI1).
T1 construct: expressed in transfected cells; host or cells: HEK293 cells stably carrying a 5xGal4-response-element firefly luciferase reporter, transiently transfected with the pcDNA3.1-Gal4-FXR plasmid
T1 sequence (Q96RI1 262-486 limits assumed): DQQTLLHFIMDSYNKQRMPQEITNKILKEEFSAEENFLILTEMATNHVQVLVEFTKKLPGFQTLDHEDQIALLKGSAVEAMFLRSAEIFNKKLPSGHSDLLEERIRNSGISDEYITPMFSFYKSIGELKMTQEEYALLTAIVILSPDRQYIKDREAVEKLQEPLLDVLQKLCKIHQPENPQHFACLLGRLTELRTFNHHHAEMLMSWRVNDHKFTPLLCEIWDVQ
Description: transient human FXR/Gal4-luciferase reporter assay. It is filed as cell-based. As to conditions: Gal4-hFXR reporter in HEK293 cells; read-out: HLE GAL-FXR EC50. The method in brief:
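HEK293 cells stably carrying a 5×Gal4-response-element firefly luciferase reporter, transiently transfected with a CMV-driven Gal4 DNA-binding domain–human FXR ligand-binding domain fusion, were treated overnight at 37 °C with serially diluted compounds. Luminescence was read by Steady-Glo; DMSO background was subtracted and signal expressed as percent of the 8 μM GW-4064 response.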
Consider `O=C(O)c1cc(C(F)(F)F)c2cc(N3CCC4(CC3)CC(Cc3c(-c5ccccc5C(F)(F)F)noc3C3CC3)C4)ccc2n1` [Example 4, 6-(2-((5-Cyclopropyl-3-(2-(trifluoromethyl)phenyl)isoxazol-4-yl)methyl)-7-azaspiro[3.5]nonan-7-yl)-4-(trifluoromethyl)quinoline-2-carboxylic acid], for which the EC50 is 26 nM.

Still in this experiment, the particulars now being: Gal4-hFXR reporter in HEK293 cells; relative to 8 μM GW-4064; read-out: FXR EC50.
Turning to `NC(=O)N1CCc2cc(N3CCC4(CC3)CC(=Cc3c(-c5ccccc5OC(F)(F)F)noc3C3CC3)C4)ccc2C1` [Example 180, 6-(2-((5-Cyclopropyl-3-(2-(trifluoromethoxy)phenyl)isoxazol-4-yl)methylene)-7-azaspiro[3.5]nonan-7-yl)-3,4-dihydroisoquinoline-2(1H)-carboxamide], the EC50 stood at 1400 nM.

As to `O=C(c1cc(OC2CCC2)c2cc(N3CCC4(CC3)CC(Cc3c(-c5ccccc5C(F)(F)F)noc3C3CC3)C4)ccc2n1)N1CCOCC1` [Example 181], the EC50 came out at 44 nM.

Turning to `COCCN(C)C(=O)c1cc(OC2CCC2)c2cc(N3CCC4(CC3)CC(Cc3c(-c5ccccc5C(F)(F)F)noc3C3CC3)C4)ccc2n1` [Example 182], the EC50 stood at 24 nM.

Regarding `CCN(CC)C(=O)c1cc(OC2CCC2)c2cc(N3CCC4(CC3)CC(Cc3c(-c5ccccc5C(F)(F)F)noc3C3CC3)C4)ccc2n1` [Example 183], the EC50 worked out at 51 nM.

For `CCN(C)C(=O)c1cc(OC2CCC2)c2cc(N3CCC4(CC3)CC(Cc3c(-c5ccccc5C(F)(F)F)noc3C3CC3)C4)ccc2n1` [Example 184], the EC50 came out at 37 nM.

As for `O=C(c1cc(OC2CCC2)c2cc(N3CCC4(CC3)CC(Cc3c(-c5ccccc5C(F)(F)F)noc3C3CC3)C4)ccc2n1)N1CC(F)(F)C1` [Example 186], the EC50 was found to be 1930 nM.

On to `O=C(c1cc(OC2CCC2)c2cc(N3CCC4(CC3)CC(Cc3c(-c5ccccc5C(F)(F)F)noc3C3CC3)C4)ccc2n1)N1CCC1` [Example 187], for which the EC50 was 428 nM.

For the compound `O=C(c1cc(OC2CCC2)c2cc(N3CCC4(CC3)CC(Cc3c(-c5ccccc5C(F)(F)F)noc3C3CC3)C4)ccc2n1)N1CCCC1` [Example 188], the EC50 was 76 nM.

Turning to `O=C(c1cc(OC2CCC2)c2cc(N3CCC4(CC3)CC(Cc3c(-c5ccccc5C(F)(F)F)noc3C3CC3)C4)ccc2n1)N1CCCCC1` [Example 189], the EC50 amounted to 34 nM.

Turning to `O=C(c1cc(OC2CCC2)c2cc(N3CCC4(CC3)CC(Cc3c(-c5ccccc5C(F)(F)F)noc3C3CC3)C4)ccc2n1)N1CCC(O)CC1` [Example 190], the EC50 was determined as 11 nM.

Turning to `CN(C)C(=O)c1cc(C(F)(F)F)c2cc(N3CCC4(CC3)CC(=Cc3c(-c5ccccc5C(F)(F)F)noc3C(F)(F)F)C4)ccc2n1` [Example 191], the EC50 amounted to 306 nM.

As to `CN(C)C(=O)c1cc(F)c2nc(N3CCC4(CC3)CC(=Cc3c(-c5c(Cl)cncc5Cl)noc3C(F)(F)F)C4)sc2c1` [Example 192], the EC50 worked out at 677 nM.

As to `O=C(O)c1ccc2cc(N3CCC4(CC3)CC(=Cc3c(-c5ccccc5C(F)(F)F)noc3C(F)(F)F)C4)ccc2n1` [Example 193], the EC50 amounted to 502 nM.

For another experiment, the system named is Fgf15. Briefly: Acute mouse in vivo assay, Fgf15 gene expression in ileum. The settings on record: 3 mg/kg single oral dose, @ 6 h. On the procedure:
Acute Mouse In Vivo Assay:
Male, C57BL6/NTac mice, weighing 25-28 g, are purchased from Taconic Labs (Hudson, N.Y.) and maintained on Teklad Global 18% Protein Rodent Diet (Harlan Laboratories). After 1 week acclimation, mice are sorted into groups based upon body weight. Mice are administered a single oral dose of vehicle or experimental compound. Systemic compound exposure is evaluated in plasma derived from blood collected via the submandibular vein at 1 hour post-dose, and at study termination (6 h). At study termination, the animals are euthanized and rapidly dissected. The medial lobe of the liver is divided, with one half being homogenized and analyzed for compound exposure, and the other half saved in RNAlater (Thermo-Fisher Scientific). The ileum is also dissected and preserved in RNAlater. Tissue samples in RNAlater are homogenized with MP Biomedicals' beads. […] RNA Concentration is determined with the Nano-Drop 8000 Spectrophotometer (Thermo Fisher). […] Mouse genes analyzed include Nr0b2 (which encodes the small heterodimer partner, SHP), Abcb11 (which encodes the bile salt excretion pump, BSEP), Cyp7a1, & Cyp8b1 in liver, and Fgf15, Fabp6 (which encodes ileal bile acid binding protein, I-BABP), Slc51a (which encodes organic solute transporter alpha subunit, OSTA), and Slc51b (which encodes organic solute transporter beta subunit, OSTB) in the ileum. […]
As to `O=C(O)c1cc(C(F)(F)F)c2cc(N3CCC4(CC3)CC(Cc3c(-c5ccccc5C(F)(F)F)noc3C3CC3)C4)ccc2n1` [Example 4, 6-(2-((5-Cyclopropyl-3-(2-(trifluoromethyl)phenyl)isoxazol-4-yl)methyl)-7-azaspiro[3.5]nonan-7-yl)-4-(trifluoromethyl)quinoline-2-carboxylic acid], the “Fgf15 expression, fold increase relative to vehicle control” value was “+24 x”.

The record behind these values is patent publication US11370785B2, “Multicyclic compounds as farnesoid X receptor modulators” (BRISTOL-MYERS SQUIBB COMPANY, priority 2017, dated 2022).
